The values that follow come from patent publication US20250051338A1, “TYK2 DEGRADERS AND USES THEREOF” (Kymera Therapeutics, Inc., priority 2021, published 2025).

For orientation: DC50 means the concentration giving 50% degradation.

Holding throughout (assay type): cell-based
The target in test [1] is T1, TYK2 (Homo sapiens, UniProt P29597). The test can be described thus: TYK2 degradation MSD assay in human PBMC cells. Further details: endogenous in cells; host or cells: human PBMC. The conditions noted are these: 4 to 24 hours incubation, read-out: TYK2 MSD DC50 rating in human PBMC. In a few lines:
(§1)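 MSD electrochemiluminescence readout of residual TYK2 in RIPA lysates after 4–24 h compound exposure at 37° C. Dosing: 9 concentrations, 1:3 steps, top 1 to 10 μM. DC50 fitted by four-parameter inhibitor vs. response regression.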

Test [2] concerns the target T1, TYK2. The test can be described thus: TYK2 degradation MSD assay in EBV-B cells. Further details: endogenous in cells; host or cells: EBV-B cells. The conditions noted are these: 4 to 24 hours incubation, read-out: TYK2 MSD DC50 rating in EBV-B. In a few lines: as §1
The target of test [3] is T1, TYK2. The test is described as follows: TYK2 degradation MSD assay in OCI-LY10 cells. Further details: endogenous in cells; host or cells: EBV-B cells. The following applies: 4 to 24 hours incubation, read-out: TYK2 MSD DC50 rating in OCI-LY10. In a few lines: as §1

Each structure is given as a SMILES string.

T1 sequence (P29597 whole entry): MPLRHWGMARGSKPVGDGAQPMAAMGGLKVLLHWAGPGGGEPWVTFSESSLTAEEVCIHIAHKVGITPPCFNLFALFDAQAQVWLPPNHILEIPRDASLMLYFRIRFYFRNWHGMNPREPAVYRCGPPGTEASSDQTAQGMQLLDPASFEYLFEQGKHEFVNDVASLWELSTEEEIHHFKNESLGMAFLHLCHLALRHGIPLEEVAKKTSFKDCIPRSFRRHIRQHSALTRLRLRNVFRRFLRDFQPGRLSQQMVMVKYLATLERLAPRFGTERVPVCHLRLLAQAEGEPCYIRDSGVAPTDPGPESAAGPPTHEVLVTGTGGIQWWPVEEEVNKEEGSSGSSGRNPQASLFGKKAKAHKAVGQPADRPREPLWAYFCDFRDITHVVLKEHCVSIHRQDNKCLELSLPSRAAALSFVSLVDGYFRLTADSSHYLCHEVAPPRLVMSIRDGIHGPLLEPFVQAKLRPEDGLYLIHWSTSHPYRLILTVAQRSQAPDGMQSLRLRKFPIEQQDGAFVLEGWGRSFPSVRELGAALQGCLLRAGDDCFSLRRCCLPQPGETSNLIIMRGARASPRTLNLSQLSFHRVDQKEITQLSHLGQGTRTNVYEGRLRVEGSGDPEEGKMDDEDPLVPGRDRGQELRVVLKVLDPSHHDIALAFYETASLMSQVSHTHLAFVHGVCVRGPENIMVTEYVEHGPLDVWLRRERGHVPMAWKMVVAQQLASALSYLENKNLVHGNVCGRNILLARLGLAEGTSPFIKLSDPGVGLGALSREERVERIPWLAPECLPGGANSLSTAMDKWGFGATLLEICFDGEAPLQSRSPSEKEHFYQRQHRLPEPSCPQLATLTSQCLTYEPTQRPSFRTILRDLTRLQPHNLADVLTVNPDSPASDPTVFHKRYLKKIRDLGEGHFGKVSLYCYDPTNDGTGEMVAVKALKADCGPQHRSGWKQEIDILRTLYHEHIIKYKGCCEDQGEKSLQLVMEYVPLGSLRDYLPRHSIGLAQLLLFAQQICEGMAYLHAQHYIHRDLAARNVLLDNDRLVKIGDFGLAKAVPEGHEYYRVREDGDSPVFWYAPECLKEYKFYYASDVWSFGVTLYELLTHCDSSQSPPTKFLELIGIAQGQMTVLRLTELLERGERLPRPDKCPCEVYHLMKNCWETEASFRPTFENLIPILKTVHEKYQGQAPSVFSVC

As to `CNC(=O)c1cnc(Nc2ccc(CN3CCN(CC#Cc4ccc5c(c4)n(C)c(=O)n5C4CCC(=O)NC4=O)CC3)cn2)cc1Nc1cccc(-c2ncc(F)cn2)c1OC` (stereo not drawn) [Example K701], the DC50 at TYK2 [1] is less than 0.001 µM; on TYK2 [2], greater than 0.1 µM; at TYK2 [3] it was less than 0.001 µM.

For `CNC(=O)c1cnc(Nc2ccc(N3CCN(c4cccc5c4n(C)c(=O)n5C4CCC(=O)NC4=O)CC3)cn2)cc1Nc1cccc(-c2ncc(F)cn2)c1OC` (stereo not drawn) [Example K702], the DC50 on TYK2 [1] was greater than 0.1 µM; at TYK2 [2], 0.001 to 0.01 µM; on TYK2 [3] it was greater than 0.1 µM.

`CNC(=O)c1cnc(Nc2ccc(C3CN(Cc4cccc5c4n(C)c(=O)n5C4CCC(=O)NC4=O)C3)cn2)cc1Nc1cccc(-c2ncc(F)cn2)c1OC` (stereo not drawn) [Example K703]: the DC50 is greater than 0.1 µM on TYK2 [1], less than 0.001 µM on TYK2 [2] and greater than 0.1 µM on TYK2 [3].

In the case of `CNC(=O)c1cnc(Nc2ccc(CN(C)C3CCN(c4cccc5c4n(C)c(=O)n5C4CCC(=O)NC4=O)CC3)cn2)cc1Nc1cccc(-c2ncc(F)cn2)c1OC` (stereo not drawn) [Example K704], the values for the DC50 at TYK2 [1], on TYK2 [2] and at TYK2 [3] were greater than 0.1 µM, less than 0.001 µM and less than 0.001 µM, respectively.

Take `CNC(=O)c1cnc(Nc2ccc(CN3CCC(N(C)c4cccc5c4n(C)c(=O)n5C4CCC(=O)NC4=O)C3)cn2)cc1Nc1cccc(-c2ncc(F)cn2)c1OC` (stereo not drawn) [Example K705]: the DC50 is greater than 0.1 µM at TYK2 [1], less than 0.001 µM at TYK2 [2] and greater than 0.1 µM at TYK2 [3].

`CNC(=O)c1cnc(Nc2ccc(C(=O)NCCCCc3ccc4c(c3)n(C)c(=O)n4C3CCC(=O)NC3=O)cn2)cc1Nc1ccccc1OC` (stereo not drawn) [Example K706]: the DC50 on TYK2 [1], at TYK2 [2] and on TYK2 [3] was greater than 0.1 µM each time.

Consider `CNC(=O)c1cnc(Nc2ccc(C3CN(Cc4ccc5c(c4)n(C)c(=O)n5C4CCC(=O)NC4=O)C3)cn2)cc1Nc1cccc(-c2ncc(F)cn2)c1OC` (stereo not drawn) [Example K707], for which the values for the DC50 on TYK2 [1], on TYK2 [2] and on TYK2 [3] were greater than 0.1 µM, 0.001 to 0.01 µM and greater than 0.1 µM, respectively.

`CNC(=O)c1cnc(Nc2ccc(CN3CCC(OCC#Cc4ccc5c(c4)n(C)c(=O)n5C4CCC(=O)NC4=O)CC3)cn2)cc1Nc1cccc(-c2ncc(F)cn2)c1OC` (stereo not drawn) [Example K708]: the DC50 at TYK2 [1] is greater than 0.1 µM; on TYK2 [2], less than 0.001 µM; at TYK2 [3] it was greater than 0.1 µM.

As for `CCNC(=O)c1cnc(Nc2cc(CN3CCN(c4ccc5c(c4)n(C)c(=O)n5C4CCC(=O)NC4=O)CC3)ccn2)cc1Nc1cccc(-c2ncc(F)cn2)c1OC` (stereo not drawn) [Example K709], the values for the DC50 on TYK2 [1], on TYK2 [2] and at TYK2 [3] were greater than 0.1 µM, 0.001 to 0.01 µM and greater than 0.1 µM, respectively.

With `[2H]C([2H])([2H])NC(=O)c1nnc(Nc2ccc(C(=O)N(C)C3CCN(c4cccc5c4n(C)c(=O)n5C4CCC(=O)NC4=O)CC3)cn2)cc1Nc1cccc(F)c1OC` (stereo not drawn) [Example K710], the values for the half-maximal degradation concentration (DC50) at TYK2 [1], on TYK2 [2] and on TYK2 [3] were greater than 0.1 µM, less than 0.001 µM and greater than 0.1 µM, respectively.

For the molecule `[2H]C([2H])([2H])NC(=O)c1nnc(Nc2ccc(CN3CCN(c4ccc5c(c4)n(C)c(=O)n5C4CCC(=O)NC4=O)CC3)cn2)cc1Nc1cccc(F)c1OC` (stereo not drawn) [Example K711], the DC50 at TYK2 [1], at TYK2 [2] and at TYK2 [3] was greater than 0.1 µM throughout.

`[2H]C([2H])([2H])NC(=O)c1nnc(Nc2ccc(CN(C)CC3CCN(c4ccc5c(c4)n(C)c(=O)n5C4CCC(=O)NC4=O)CC3)cn2)cc1Nc1cccc(F)c1OC` (stereo not drawn) [Example K712]: the DC50 on TYK2 [1] was greater than 0.1 µM; on TYK2 [2], less than 0.001 µM; on TYK2 [3], greater than 0.1 µM.
